Values joined by “and” are separate entries in the source; they are usually repeats but may differ in a detail not shown here. Equal values may be shown once.
How the values were obtained:
human PD-L1 protein = target: T1, human PD-L1 protein (Homo sapiens, UniProt Q9NZQ7); test: PD-L1 binding assay with SPR (Biacore T200); details: for Kd: immobilized human PD-L1 (Fc Tag); for kon: association rate, read-out: PD-L1 Ka
T1 construct: Fc; purchased ACRO Biosystems

PD-1/PD-L1 interaction = target: T2, PD-1/PD-L1 interaction (Homo sapiens, UniProt Q9NZQ7); test: PD-1/PD-L1 blockade assay (pair ELISA); type: biochemical; details: for blockade effect on the PD-1/PD-L1 interaction (in words): test samples at 10 and 100 μM
T2 construct: purchased ACRO Biosystems
T2 sequence (Q9NZQ7 19-238 limits assumed): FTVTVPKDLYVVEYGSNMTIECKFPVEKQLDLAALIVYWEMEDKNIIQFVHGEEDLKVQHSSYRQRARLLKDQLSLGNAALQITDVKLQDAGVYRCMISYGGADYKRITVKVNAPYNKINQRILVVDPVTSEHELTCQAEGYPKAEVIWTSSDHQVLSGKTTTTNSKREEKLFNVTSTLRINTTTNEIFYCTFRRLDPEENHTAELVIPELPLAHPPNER

human PD-1 protein = target: T3, human PD-1 protein (Homo sapiens, UniProt Q15116); test: PD-1 binding assay with SPR (Biacore T200); details: for kon: association rate, read-out: PD-1 Ka; for Kd: immobilized human PD-1 (Fc Tag)
T3 construct: Fc; purchased ACRO Biosystems
T3 sequence (Q15116 25-288): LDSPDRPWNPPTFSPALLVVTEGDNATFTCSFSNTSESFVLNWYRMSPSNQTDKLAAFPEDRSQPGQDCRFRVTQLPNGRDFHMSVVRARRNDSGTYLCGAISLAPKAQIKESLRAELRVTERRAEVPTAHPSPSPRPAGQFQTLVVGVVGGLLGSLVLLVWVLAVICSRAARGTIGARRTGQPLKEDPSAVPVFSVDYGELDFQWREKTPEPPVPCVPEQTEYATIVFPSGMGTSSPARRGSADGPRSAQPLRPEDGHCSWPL
Method: The PD-1/PD-L1 binding affinity of test natural compounds was measured on a SPR Biacore T200 instrument (GE Healthcare; Marlborough, MA, USA). Human PD-L1and PD-1 proteins (both with a Fc Tag) were purchased from ACRO Biosystems (Newark, DE, USA). Carboxymethylated CM 5 SPR chips were purchased from GE Healthcare (Marlborough, MA, USA). The SPR binding channels were set as: Cell-1, blank immobilization; Cell-2, human PD-L1 protein was immobilized by the injection of protein solution (40 μg/mL) in sodium acetate buffer (10 mM; pH 4.5); Cell-3, human PD-1 protein was immobilized by the injection of protein solution (40 μg/mL) in sodium acetate buffer (10 mM; pH 5.0). Approximately, 5500 and 4500 RU of human PD-1 and PD-L1 proteins, respectively, were immobilized on the flow cells with an amine coupling method.

PD-1/PD-L1 = system: PD-1/PD-L1; parameters: method as in PMID 30068796; details: homogenous AlphaLISA assay; read-out: IC50 of PD-1/PD-L1 blockade; cited from earlier work

T1 sequence (Q9NZQ7 19-290): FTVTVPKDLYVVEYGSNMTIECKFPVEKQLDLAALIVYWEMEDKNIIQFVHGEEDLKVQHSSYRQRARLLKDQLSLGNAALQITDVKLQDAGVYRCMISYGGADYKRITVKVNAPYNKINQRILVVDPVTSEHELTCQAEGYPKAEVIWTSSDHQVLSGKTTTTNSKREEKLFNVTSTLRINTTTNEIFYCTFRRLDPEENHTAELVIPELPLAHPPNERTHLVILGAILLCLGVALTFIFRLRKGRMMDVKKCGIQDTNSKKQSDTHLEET

blockade of the PD-1/PD-L1 interaction (PD-1/PD-L1 interaction; compound at 10 μM) [%] | Kd (human PD-L1 protein) | kon (human PD-1 protein) [M⁻¹ s⁻¹] | Kd (human PD-1 protein) | blockade of the PD-1/PD-L1 interaction (PD-1/PD-L1 interaction; compound at 100 μM) [%] | SMILES | kon (human PD-L1 protein) [M⁻¹ s⁻¹] | further results
– | – | – | – | – | O=C1O[C@H]2[C@@H]3OC(=O)c4cc(O)c(O)c(O)c4-c4c(O)c(O)c5oc(=O)c6c(c(O)c(O)c7oc(=O)c4c5c76)-c4c(cc(O)c(O)c4O)C(=O)OC[C@H]3OC(O)[C@@H]2OC(=O)c2cc(O)c(O)c(O)c2-c2c1cc(O)c(O)c2O (mixture of isomers) [punicalagin] | – | binding capacity to PD-1/PD-L1 proteins (in words) (human PD-L1 protein; protein not specified further (PD-1/PD-L1 proteins), earlier observation of the authors): detectable binding capacity; activity in the PD-1/PD-L1 blockade assay (in words) (PD-1/PD-L1 interaction; earlier observation of the authors, concentration not given): not active
– | 26.2 µM | 410 | 1.82 µM | – | O=c1oc2c(O)c(O)cc3c(=O)oc4c(O)c(O)cc1c4c23 [EA, ellagic acid] | – | blockade effect on the PD-1/PD-L1 interaction (in words) (PD-1/PD-L1 interaction): not detected
– | – | – | – | 58.6 | CO[C@H]1/C=C/O[C@@]2(C)Oc3c(C)c(O)c4c(c3C2=O)C2=NC3(CCN(CC(C)C)CC3)NC2=C(NC(=O)/C(C)=C\C=C\[C@H](C)[C@H](O)[C@@H](C)[C@@H](O)[C@@H](C)[C@H](OC(C)=O)[C@@H]1C)C4=O [Rifabutin, rifabutin, reference compound] | – | binding affinity to PD-L1 protein (in words) (human PD-L1 protein): not detectable; IC50 (PD-1/PD-L1): 25 µM; binding affinity to PD-1 protein (in words) (human PD-1 protein): not detectable
11.0 | 1.21 µM | – | 1.46 µM | 36.9 | O=C(OC[C@H]1O[C@@H](OC(=O)c2cc(O)c(O)c(OC(=O)c3cc(O)c(O)c(O)c3)c2)[C@H](OC(=O)c2cc(O)c(O)c(OC(=O)c3cc(O)c(O)c(O)c3)c2)[C@@H](OC(=O)c2cc(O)c(O)c(OC(=O)c3cc(O)c(O)c(O)c3)c2)[C@@H]1OC(=O)c1cc(O)c(O)c(OC(=O)c2cc(O)c(O)c(O)c2)c1)c1cc(O)c(O)c(OC(=O)c2cc(O)c(O)c(O)c2)c1 [TA, tannic acid] | – | –
4.1 | 33 µM and 32.9 µM | 504 | 0.304 µM and 0.303 µM | 63.4 | O=c1c(O)c(-c2ccc(O)cc2)oc2cc(O)cc(O)c12 [kaempferol] | 5460 | binding affinity to PD-1 protein relative to PD-L1 protein (human PD-1 protein; PD-1 stronger than PD-L1): 100 fold
– | 37.9 µM | – | – | – | Oc1ccc(/C=C/c2cc(O)cc(O)c2)cc1 [resveratrol] | – | koff (dissociation rate constant) to PD-L1 (human PD-L1 protein): 0.06435 s⁻¹
– | – | – | – | 39.7 | O=c1oc2cc(O)ccc2c2ccc(O)cc12 [urolithin A] | – | binding affinity to PD-L1 protein (in words) (human PD-L1 protein): not detectable; binding affinity to PD-1 protein (in words) (human PD-1 protein): not detectable

SMILES | blockade of the PD-1/PD-L1 interaction (PD-1/PD-L1 interaction; compound at 10 μM) [%] | Kd (human PD-L1 protein) | kon (human PD-1 protein) [M⁻¹ s⁻¹] | Kd (human PD-1 protein) | blockade of the PD-1/PD-L1 interaction (PD-1/PD-L1 interaction; compound at 100 μM) [%] | kon (human PD-L1 protein) [M⁻¹ s⁻¹] | further results
Cc1c(COc2cc(OCc3cccc(C#N)c3)c(CN3C[C@H](O)C[C@@H]3C(=O)O)cc2Cl)cccc1-c1ccc2c(c1)OCCO2 [BMS1166, reference compound] | 99.3 | – | – | – | – | – | –
O=C(OC[C@H]1O[C@@H](OC(=O)c2cc(O)c(O)c(O)c2)[C@H](OC(=O)c2cc(O)c(O)c(O)c2)[C@@H](OC(=O)c2cc(O)c(O)c(O)c2)[C@@H]1OC(=O)c1cc(O)c(O)c(O)c1)c1cc(O)c(O)c(O)c1 [PGG, pentagalloyl glucose] | – | 2.23 µM | 3940 | 27.2 µM | – | 413 | blockade effect on the PD-1/PD-L1 interaction (in words) (PD-1/PD-L1 interaction): not detected
O=c1cc(-c2ccc(O)cc2)oc2cc(O[C@@H]3O[C@H](CO)[C@@H](O)[C@H](O)[C@H]3O)cc(O)c12 [cosmosiin] | – | 3.32 µM | – | – | 55.8 | 785 | selectivity of binding (PD-L1 versus PD-1) (human PD-L1 protein): selective binding to the PD-L1 protein; koff (dissociation rate constant) to PD-L1 (human PD-L1 protein): 0.00261 s⁻¹

From PMC9511049, “Further investigation of blockade effects and binding affinities of selected natural compounds to immune checkpoint PD-1/PD-L1” (Frontiers in Oncology, 2022)
